The record followed here is US9828369B2, “Isoquinoline derivatives useful as inhibitors of diacylglyceride O-acyltransferase 2” (Merck Sharp & Dohme Corp., priority 2014, dated 2017).

Chain of hDGAT2 (Q96PD7 whole entry): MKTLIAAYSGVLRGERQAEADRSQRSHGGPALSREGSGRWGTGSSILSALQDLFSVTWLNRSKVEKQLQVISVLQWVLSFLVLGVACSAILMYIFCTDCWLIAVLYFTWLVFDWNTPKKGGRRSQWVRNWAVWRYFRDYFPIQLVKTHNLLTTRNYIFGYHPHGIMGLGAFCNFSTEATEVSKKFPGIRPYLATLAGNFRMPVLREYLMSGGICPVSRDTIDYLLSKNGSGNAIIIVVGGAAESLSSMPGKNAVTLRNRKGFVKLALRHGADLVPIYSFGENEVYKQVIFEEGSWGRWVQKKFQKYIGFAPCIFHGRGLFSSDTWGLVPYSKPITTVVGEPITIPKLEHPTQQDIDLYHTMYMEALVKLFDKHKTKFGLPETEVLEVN

This experiment addresses hDGAT2 (Homo sapiens (Human), UniProt Q96PD7). The experiment is described as follows: DGAT2 enzymatic activity assay (triolein formation, LC/MS/MS). Conditions: read-out: IC50 values for inhibition of DGAT2; membrane prep of Sf-9 cells expressing hDGAT2; 25 μM diolein, 10 μM oleoyl-CoA; room temperature; triolein by LC/MS/MS.
Take `COc1cccc(-c2ccc(CNC(=O)c3cnn(-c4ccccc4)c3C(F)(F)F)c3cnccc23)c1` [Example 132, N-((5-(3-methoxyphenyl)isoquinolin-8-yl)methyl)-1-phenyl-5-(trifluoromethyl)-1H-pyrazole-4-carboxamide]: the IC50 (commonly the concentration that gives 50% inhibition) is 3940 nM.

With `COc1cccc(-c2ccc(CNC(=O)c3ccnc(C(F)(F)F)c3)c3cnccc23)c1` [Example 133, N-((5-(3-methoxyphenyl)isoquinolin-8-yl)methyl)-2-(trifluoromethyl)isonicotinamide], the IC50 stood at 571 nM.

As to `COc1cccc(-c2ccc(CNC(=O)C(C)c3ccc(-c4ccccc4)cc3)c3cnccc23)c1` (centres unmarked) [Example 134, 2-([1,1′-biphenyl]-4-yl)-N-((5-(3-methoxyphenyl)isoquinolin-8-yl)methyl)propanamide], the IC50 stood at 324 nM.

Consider `COc1cccc(-c2ccc(CNC(=O)C(C)c3cccc(F)c3)c3cnccc23)c1` (centres unmarked) [Example 135, 2-(3-fluorophenyl)-N-((5-(3-methoxyphenyl)isoquinolin-8-yl)methyl)propanamide], for which the IC50 turned out to be 2000 nM.

Regarding `COc1cccc(-c2ccc(CNC(=O)C(C)c3ccc(C#N)cc3)c3cnccc23)c1` (centres unmarked) [Example 136, 2-(4-cyanophenyl)-N-((5-(3-methoxyphenyl)isoquinolin-8-yl)methyl)propanamide], the IC50 amounted to 256 nM.

Turning to `COc1cccc(-c2ccc(CNC(=O)C(C)c3ccc(OC(F)(F)F)cc3)c3cnccc23)c1` (centres unmarked) [Example 137, N-((5-(3-methoxyphenyl)isoquinolin-8-yl)methyl)-2-(4-(trifluoromethoxy)phenyl)propanamide], the IC50 worked out at 484 nM.

In the case of `COc1cccc(-c2ccc(CNC(=O)C(C)c3ccccc3)c3cnccc23)c1` (centres unmarked) [Example 138, N-((5-(3-methoxyphenyl)isoquinolin-8-yl)methyl)-2-phenylpropanamide], the IC50 worked out at 298 nM.

Take `COc1cccc(-c2ccc(CNC(=O)C(C)c3ccccc3F)c3cnccc23)c1` (centres unmarked) [Example 139, 2-(2-fluorophenyl)-N-((5-(3-methoxyphenyl)isoquinolin-8-yl)methyl)propanamide]: the IC50 is 213 nM.

As to `COc1cccc(-c2ccc(CNC(=O)C(C)c3ccc(C(F)(F)F)cc3)c3cnccc23)c1` (centres unmarked) [Example 141, N-((5-(3-methoxyphenyl)isoquinolin-8-yl)methyl)-2-(4-(trifluoromethyl)phenyl)propanamide], the IC50 was determined as 566 nM.

As for `COc1cccc(-c2ccc(CNC(=O)C(C)c3ccc4cc(OC)ccc4c3)c3cnccc23)c1` (centres unmarked) [Example 143, 2-(6-methoxynaphthalen-2-yl)-N-((5-(3-methoxyphenyl)isoquinolin-8-yl)methyl)propanamide], the IC50 was 197 nM.

Consider `COc1cccc(-c2ccc(CNC(=O)C(C)c3ccc(C4CCCCC4)c(Cl)c3)c3cnccc23)c1` (centres unmarked) [Example 148, 2-(3-chloro-4-cyclohexylphenyl)-N-((5-(3-methoxyphenyl)isoquinolin-8-yl)methyl)propanamide], for which the IC50 came to 6890 nM.

As for `COc1cccc(-c2ccc(CNC(=O)Cc3ccc(C(F)(F)F)cc3)c3ncccc23)c1` [Example 150, N-((5-(3-methoxyphenyl)quinolin-8-yl)methyl)-2-(4-(trifluoromethyl)phenyl)acetamide], the IC50 came to 426 nM.

Take `COc1cccc(-c2ccc(CNC(=O)Nc3ccc(OC(F)(F)F)cc3)c3cnccc23)c1` [Example 151, 1-((5-(3-methoxyphenyl)isoquinolin-8-yl)methyl)-3-(4-(trifluoromethoxy)phenyl)urea]: the IC50 was found to be 938 nM.

Regarding `COc1cc(OC)cc(-c2ccc(CNC(=O)Nc3cccc(Cl)c3Cl)c3cnccc23)c1` [Example 152, 1-(2,3-dichlorophenyl)-3-((5-(3,5-dimethoxyphenyl)isoquinolin-8-yl)methyl)urea], the IC50 is 198 nM.

In the case of `COC(=O)c1ccccc1NC(=O)NCc1ccc(-c2cccc(OC)c2)c2ccncc12` [Example 153, methyl 2-(3-((5-(3-methoxyphenyl)isoquinolin-8-yl)methyl)ureido)benzoate], the IC50 was 1110 nM.

As to `COc1cccc(-c2ccc(CNC(=O)c3ccn(C)n3)c3cnccc23)c1` [Example 154, N-((5-(3-methoxyphenyl)isoquinolin-8-yl)methyl)-1-methyl-1H-pyrazole-3-carboxamide], the IC50 was 3270 nM.

With `COc1cccc(-c2ccc(CNC(=O)Nc3cccc(-c4ccccc4)c3)c3cnccc23)c1` [Example 157, 1-([1,1′-biphenyl]-3-yl)-3-((5(3-methoxyphenyl)isoquinolin-8-yl)methyl)urea], the half-inhibitory concentration (IC50) was 116 nM.

With `C=C(c1ccccc1)c1ccc(CNC(=O)Nc2cccc(Cl)c2Cl)c2cnccc12` [Example 158, 1-(2,3-dichlorophenyl)-3-((5-(1-phenylyinyl)isoquinolin-8-yl)methyl)urea], the IC50 came out at 374 nM.

As for `COCCCc1ccc(CNC(=O)Nc2cccc(Cl)c2Cl)c2cnccc12` [Example 159, 1-(2,3-dichlorophenyl)-3-((5-(3-methoxypropyl)isoquinolin-8-yl)methyl)urea], the IC50 is 478 nM.

`CNC(=O)c1cccc(-c2ccc(CNC(=O)Nc3cccc(Cl)c3Cl)c3cnccc23)c1` [Example 161, 3-(8-((3-(2,3-dichlorophenyl)ureido)methyl)isoquinolin-5-yl)-N-methylbenzamide]: the IC50 was 1210 nM.

With `CC(C)(C)OC(=O)N1CC=C(c2ccc(CNC(=O)Nc3cccc(Cl)c3Cl)c3cnccc23)CC1` [Example 162, tert-butyl 4-(8-((3-(2,3-dichlorophenyl)ureido)methyl)isoquinolin-5-yl)-5,6-dihydropyridine-1(2H)-carboxylate], the IC50 turned out to be 1950 nM.

`O=C(O)CCc1ccc(-c2ccc(CNC(=O)Nc3cccc(Cl)c3Cl)c3cnccc23)cc1` [Example 163, 3-(4-(8-((3-(2,3-dichlorophenyl)ureido)methyl)isoquinolin-5-yl)phenyl)propanoic acid]: the IC50 stood at 2360 nM.

On to `CC(c1ccccc1)c1ccc(CNC(=O)Nc2cccc(Cl)c2Cl)c2cnccc12` (centres unmarked) [Example 164, 1-(2,3-dichlorophenyl)-3-((5-(1-phenylethyl)isoquinolin-8-yl)methyl)urea], for which the IC50 is 4220 nM.

For `CC(C)(C)OC(=O)N1CCC=C(c2ccc(CNC(=O)Nc3cccc(Cl)c3Cl)c3cnccc23)C1` [Example 165, tert-butyl 3-(8-((3-(2,3-dichlorophenyl)ureido)methyl)isoquinolin-5-yl)-5,6-dihydropyridine-1(2H)-carboxylate], the IC50 worked out at 4310 nM.

Take `O=C(NCc1ccc(-c2cccc(C(=O)N3CCOCC3)c2)c2ccncc12)Nc1cccc(Cl)c1Cl` [Example 166, 1-(2,3-dichlorophenyl)-3-((5-(3-(morpholine-4-carbonyl)phenyl)isoquinolin-8-yl)methyl)urea]: the IC50 came out at 4410 nM.

On to `O=C(NCc1ccc(C2=CCNC2)c2ccncc12)Nc1cccc(Cl)c1Cl` [Example 167, 1-(2,3-dichlorophenyl)-3-((5-(2,5-dihydro-1H-pyrrol-3-yl)isoquinolin-8-yl)methyl)urea], for which the IC50 worked out at 4420 nM.

On to `COc1cccc(-c2ccc(CNC(=O)Nc3ccccc3-c3ccccc3)c3cnccc23)c1` [Example 169, 1-([1,1′-biphenyl]-2-yl)-3-((5-(3-methoxyphenyl)isoquinolin-8-yl)methyl)urea], for which the IC50 was determined as 7070 nM.

In the case of `COc1cccc(-c2ccc(CNC(=O)Nc3ccc(F)cc3F)c3ncccc23)c1` [Example 170, 1-(2,4-difluorophenyl)-3-((5-(3-methoxyphenyl)quinolin-8-yl)methyl)urea], the 50% inhibitory concentration (IC50) was determined as 8190 nM.

In the case of `COc1cccc(-c2ccc(CNC(=O)C3CC3c3ccccc3)c3ccccc23)c1` (centres unmarked) [Example 172, N-((4-(3-methoxyphenyl)naphthalen-1-yl)methyl)-2-phenylcyclopropanecarboxamide], the IC50 was 206 nM.
